Biological target: T1, PfHT (Plasmodium falciparum, UniProt Q7KWJ5)
T1 sequence (Q7KWJ5 1-504): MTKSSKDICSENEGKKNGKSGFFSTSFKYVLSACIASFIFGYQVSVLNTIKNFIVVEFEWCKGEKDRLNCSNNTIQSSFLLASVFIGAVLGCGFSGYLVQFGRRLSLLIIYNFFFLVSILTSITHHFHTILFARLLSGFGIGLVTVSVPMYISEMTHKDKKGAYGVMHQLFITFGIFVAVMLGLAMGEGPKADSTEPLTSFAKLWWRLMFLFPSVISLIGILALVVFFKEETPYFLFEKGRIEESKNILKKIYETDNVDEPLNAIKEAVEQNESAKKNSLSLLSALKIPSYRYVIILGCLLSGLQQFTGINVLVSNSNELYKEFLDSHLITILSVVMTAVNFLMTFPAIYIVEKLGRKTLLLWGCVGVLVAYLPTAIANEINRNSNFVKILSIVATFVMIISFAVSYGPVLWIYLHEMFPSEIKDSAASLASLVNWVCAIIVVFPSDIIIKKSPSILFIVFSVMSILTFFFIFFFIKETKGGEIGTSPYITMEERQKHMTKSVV
Assay: 2-DG uptake by HEK293 cells overexpressing PfHT
Assay type: cell-based
Design: expressed in transfected cells; host or cells: HEK293 (HEK293-FLIP, native hGLUT1 knocked down by shRNA)
Conditions: for remaining activity at 0.001 µM: 0.001 µM compound; for remaining activity at 0.3125 µM: 0.3125 µM compound (0.313 in Fig 1 sheet for WU-1); for remaining activity at 0.625 µM: 0.625 µM compound; for remaining activity at 1.25 µM: 1.25 µM compound; for remaining activity at 2.5 µM: 2.5 µM compound; for remaining activity at 5 µM: 5 µM compound; for remaining activity at 10 µM: 10 µM compound; for remaining activity at 20 µM: 20 µM compound; for remaining activity at 80 µM: 80 µM compound; for remaining activity at 160 µM: 160 µM compound; for remaining activity at 225 µM: 225 µM compound; for IC50: IC50 for inhibition of 2-DG uptake, HEK293 cells overexpressing PfHT, mean/reported value
Text: Generation of HEK293 cells overexpressing PfHT and human GLUTs 1–4 were described elsewhere. Briefly, HEK293 cells were transfected with pcDNA3.1 FLII12Pglu-7006 (Addgene), containing the fluorescence resonance energy transfer (FRET) glucose sensor (HEK293-FLIP) and PfHT, human GLUT1 (hGLUT1), hGLUT2, hGLUT3, hGLUT4, hGLUT5 or hGLUT8 using Optifect (Life Technologies) according to manufacturer’s specifications. To increase retention of GLUT8 at the plasma membrane, the dileucine sorting signal E^7E^8XXXLL was modified to R^7R^8XXXLL as described in [17]. Stable transfectants were selected for G418 and hygromycin resistance to select for FRET sensor and hexose transporter, respectively. HEK293-FLIP cells were also used to generate cells stably transfected with FLAG-tagged PfHT (FTPfHT). FLAG tag ([…]) followed by a triple glycine linker and a tobacco etch virus (TEV) protease site (ENLYFQS) followed by a triple glycine linker was added to the N-terminus of PfHT via PCR [18] using Phusion Hot Start II High-Fidelity DNA Polymerase (Fisher Scientific). Single clones were selected by comparing their abilities to transport glucose as assayed via FRET and radiolabeled hexose uptake. In all cell lines, except for HEK293 cells overexpressing hGLUT1 and hGLUT5, native hGLUT1 was knocked down using shRNA as described elsewhere. Transcript levels of the individual GLUTs expressed in each cell line are as described in [13, 15] and in S1 Fig.
Glucose uptake by P. falciparum was performed essentially as described. P. falciparum strain 3D7 was cultured in 100 mm tissue culture dishes (Techno Plastic Products) in a 2% suspension of human erythrocytes and RPMI 1640 medium until reaching > 7.5% parasitemia. Cells were pelleted via centrifugation and resuspended in RPMI 1640 medium. To determine the uptake of radiolabeled glucose into the parasite, parasites were isolated from infected erythrocytes by permeablization with saponin (0.05 w/v), followed by centrifugation, aspiration of supernatant and washing of the pellet 3X with saline solution (135 mM NaCl, 2 mM KCl, 25 mM HEPES, 0.2 mM glucose and 1 mM MgCl2; pH 7.1) to remove cellular debris. WU-1 or DMSO vehicle were added to 100 μl parasites (resuspended in saline) 5 min prior to the addition of 100 μl [^14C]2-DOG (0.2- μCi/ml final concentration). 2-DG uptake was stopped after 2 min by layering the entire reaction over 300 μl of an oil mixture (5:4 mix of dibutyl phthalate / dinonyl phthalate) in Eppendorf tubes and centrifuged at 15,850 × g for 2 mins. The ratio of the estimated intracellular concentration of radiolabel relative to the extracellular concentration were calculated as described. Uptake of radiolabeled hexose into HEK293 cells was measured in glucose-free HBSS as described previously. Briefly, cells were plated at 400,000 cells/well overnight at 37°C in 24-well plates pre-treated with PEI. After 30-min incubation at 37°C in glucose-free HBSS in the presence of vehicle or increasing concentrations of compound, 2-DG uptake was measured in glucose-free HBSS for 4 min at 37°C. Cultures were washed in ice-cold 1X PBS and lysed in 0.1% Triton X-100 in 1X PBS. Radiolabeled hexose uptake was determined by liquid scintillation counting (Ultima Gold, Thermo Fisher) and normalized to total protein per well. Uptake data are plotted as percent uptake relative to vehicle-treated cells. Kinetic analyses were performed using the indicated concentrations of substrate and WU-1, with quenching of uptake after 1 min incubation. Incubation times had been previously determined as being in the linear range of time-dependent radiolabeled hexose uptake (2 min for 2-DG uptake into freed parasites; 2 and 4 min for D-Frc and 2-DG uptake HEK cell lines, respectively). Data were fit by least squares nonlinear regression analysis using GraphPad Prism 6.0 software.

[1] = HEK293, 4 min, read-out: 2-DG uptake (percent uptake relative to vehicle), AVE, PfHT
[2] = HEK293, 4 min, read-out: % Inhibition of 2-DG uptake vs vehicle

## COc1cc(/C=N/NC(=O)c2cc(-c3ccccc3)sc2N)cc(OC)c1OC [WU-3, 2-amino-5-phenyl-N'-[(E)-(3,4,5-trimethoxyphenyl)methylidene]thiophene-3-carbohydrazide]
[1]
  remaining activity at 0.001 µM: 100%
  remaining activity at 0.3125 µM: 109%
  remaining activity at 0.625 µM: 104%
  remaining activity at 1.25 µM: 103%
  remaining activity at 2.5 µM: 104%
  remaining activity at 5 µM: 87.6%
  remaining activity at 10 µM: 62%
  remaining activity at 20 µM: 42.7%
  remaining activity at 80 µM: 37.1%
  remaining activity at 160 µM: 31.1%
  remaining activity at 225 µM: 18.9%
HEK293, 4 min, read-out: 2-DG uptake (percent uptake relative to vehicle), AVE, PfHT, 40 µM compound
  remaining activity at 40 µM: 42.2%
[2]
  inhibition at 10 µM: 51.8%
  IC50: 9.2 µM

## COc1cc(/C=C2\COC/C(=C\c3cc(OC)c(OC)c(OC)c3)C2=O)cc(OC)c1OC [WU-5, (3E,5E)-3,5-bis[(3,4,5-trimethoxyphenyl)methylidene]oxan-4-one]
[1]
  remaining activity at 0.001 µM: 100%
  remaining activity at 0.3125 µM: 92.8%
  remaining activity at 0.625 µM: 89.8%
  remaining activity at 1.25 µM: 72.2%
  remaining activity at 2.5 µM: 61.4%
  remaining activity at 5 µM: 48.9%
  remaining activity at 10 µM: 32%
  remaining activity at 20 µM: 30.9%
  remaining activity at 80 µM: 32.8%
  remaining activity at 160 µM: 34.5%
  remaining activity at 225 µM: 35.8%
[2]
  inhibition at 2.5 µM: 47%
  IC50: 1.9 µM

Reference: publication PMC6508677, “Identification of druggable small molecule antagonists of the Plasmodium falciparum hexose transporter PfHT and assessment of ligand access to the glucose permeation pathway via FLAG-mediated protein engineering” (PLoS ONE, 2019)
